From patent publication US7968526B2, “Antisense oligonucleotides directed to ribonucleotide reductase R2 and uses thereof in the treatment of cancer” (Lorus Therapeutics Inc., priority 2003, dated 2011)
“Also recorded” adds a separate entry of the source.

Key:
[1] = tested on: MDA-CDDP-S4 human in vivo-selected Cisplatin-resistant breast adenocarcinoma cells; experiment: MDA-CDDP-S4 Cisplatin-resistant breast adenocarcinoma, fat pad, CB-17 SCID mice, combination with Taxol (2.4); design: species or system human cells in mice; settings: SEQ ID NO:1 10 mg/kg i.v. every other day, Taxol 10 mg/kg i.p. weekly; for Tumour weight as % of saline control: MDA-CDDP-S4 (breast), Cisplatin resistant, SCID
Description: BxPC-3 is a gemcitabine resistant call line. […] Gemcitabine was administered intravenously every three days at a dose of 100 mg/kg. Antitumour activities were estimated by the inhibition of tumour volume, which was measured with caliper. Each point represents mean tumour volume calculated from 10 animals per experimental group. […] Hela S3 is a hydroxyurea resistant cell line. […] Hydroxyurea was administered intraperitoneally every day at a dose of 250 mg/kg for 10 days. Cisplatin was administered intravenously once a week for three weeks at a dose of 4 mg/kg. Antitumour activities were estimated by the inhibition of tumour volume, which was measured with caliper. Each point represents mean tumour volume calculated from 10 animals per experimental group. […] Cisplatin was administered intravenously once a week for three weeks at a dose of 4 mg/kg. Taxol was administered intravenously once a week for three weeks at a dose of 10 mg/kg. Antitumour activities were estimated by the inhibition of tumour volume, which was measured with caliper. Each point represents mean tumour volume calculated from 10 animals per experimental group. […] Taxol was administered i.p. once a week at a dose of 10 mg/kg. Antitumour activities were estimated by the inhibition of tumour volume (FIG. 12A), which was measured with calipers. Each point represents mean tumour volume calculated from 10 animals per experimental group. Animals were sacrificed and tumour weights taken at the end of the study (FIG. 12C). […] Cisplatin was administered intravenously once a week for four weeks at a dose of 4 mg/kg. Taxol was administered intravenously once a week for four weeks at a dose of 20 mg/kg. Antitumour activities were estimated by the inhibition of tumour volume, which was measured with caliper. Each point represents mean tumour volume calculated from 9-10 animals per experimental group. […] Cisplatin was administered intravenously once a week for four weeks at a dose of 4 mg/kg. Antitumour activities were estimated by the inhibition of tumour volume, which was measured with caliper. Each point represents mean tumour volume calculated from 10 animals per experimental group. At the end of the study the animals were sacrificed and tumours weighed. […] Taxol was administered i.p. once a week at a dose of 10 mg/kg. Anti-tumour activity was estimated by the inhibition of tumour volume, which was measured with caliper. Each point represents mean tumour volume calculated from 10 animals per experimental group. In addition animals were sacrificed and tumour weights taken at the end of the study. […] CPT-11 was administered i.p. for 5 days at a dose of 20 mg/kg/day. Antitumour activities were estimated by the inhibition of tumour volume, which was measured with caliper. Each point represents mean tumour volume calculated from 10 animals per experimental group. Tumour weights were measured after animals were sacrificed at the end of the treatment. These cells are not resistant to CPT-11 which was used as a positive control.

[2] = tested on: glioblastoma-astrocytoma (U-87 MG); experiment: Human glioblastoma-astrocytoma tumour growth in mice; type: in vivo, human cells in mice
Description: Unless noted otherwise in this Example human tumour cell lines were purchased from the American Type Culture Collections (ATCC) (Rockville, Md.). Human colon adenocarcinoma (HT-29), non-small cell lung carcinoma (NCI-H460), melanoma (A2058), breast adenocarcinoma (MDA-MB-231), pancreatic carcinoma (AsPC-1 and SU.86.86), glioblastoma-astrocytoma (U-87 MG), renal carcinoma (A498 and Caki-1), ovarian carcinoma (SK-OV-3), cervical carcinoma (HeLa S3), prostate carcinoma (PC-3), bladder carcinoma (T24), Burkitt's lymphoma (Raji) and hepatocellular carcinoma (Hep G2) were maintained, according to ATCC recommendation, in α-MEM, RPMI1640, or McCoy's 5a medium (Invitrogen Canada Inc. Burlington, Ontario) supplemented with 10-20% fetal calf serum (FCS) at 37° C. in a humidified atmosphere containing 5% CO2. Normal human cell lines, WI-38 (human lung fibroblast) and HUVEC (human umbilical vein endothelial cells) and murine R3 (fibrosarcoma) and L (Ltk^− fibroblast) cells were maintained as mentioned above. […]
FIG. 29 summarizes the results of a statistical analysis of data compiled from a number of experiments in which the effect of SEQ ID NO:1 on tumour growth was assessed in human tumour cell xenografts in mice. […]

5′-GGCTAAATCGCTCCACCAAG-3′ (all phosphorothioate, sugars by position and methylation of C not given here) [SEQ ID NO: 1, fully phosphorothioated antisense oligonucleotide that hybridizes to the coding region of R2 mRNA]
Tumour weight as % of saline control ([1]; first of two printed values (study and repeat)): 18%
Tumour weight as % of saline control ([1]; second of two printed values (study and repeat)): 41%
Antitumour effect (FIG. 12) ([1]; MDA-CDDP-S4 Cisplatin-resistant, CB-17 SCID mice): significant reduction of tumour weight compared to saline control; also recorded: superior to the inhibitory effects observed with Taxol
Inhibition of tumour weight [2]: ~65%
